Target: USP1 (construct USP1 (I-785, GG670, 671AA)/UAF1 (I-677)-Flag) (Homo sapiens (Human), UniProt O94782, G670A/G671A)
Assay: Ubiquitin-Rhodamine 110 assay for USP1 activity
Format: biochemical
Details: USP1/UAF1 25 pM, Ub-Rh110 25 nM, 30 min preincubation
Protocol: Example 53: Ubitquin-Rhodamine 110 Assay for USP1 Activity
The HTS assay was performed in a final volume of 20 μL in assay buffer containing 20 mM Tris-HCl (pH 8.0, (1M Tris-HCl, pH 8.0 solution; Corning 46-031-CM)), 2 mM CaCl2 (1M Calcium Chloride solution; Sigma #21114) 1 mM GSH (L-Glutathione reduced; Sigma #G4251), 0.01% Prionex ([…] filtered, Sigma #G-0411), and 0.01% Triton X-100. Stock compound solutions were stored at −20° C. as 10 mM in DMSO. Up to 1 month prior to the assay, 2 mM test compounds were pre-dispensed into assay plates (Black, low volume; Corning #3820) and frozen at −20° C. Prestamped assay plates were allowed to come to room temperature on the day of the assay. For the screen, 100 nL of 2 mM was pre-dispensed for a final screening concentration of […] (DMSO(fc)=0.5%). The final concentration of the enzyme (USP1, construct USP1 (I-785, GG670, 671AA)/UAF1 (I-677)-Flag; Viva) in the assay was 100 pM. Final substrate (Ub-Rh110; Ubiquitin-Rhodamine 110, R&D Systems #U-555) concentration was 25 nM with [Ub-Rh110]<<Km. […] Plates were incubated stacked for 45 minutes at room temperature before fluorescence was read on the Envision (Excitation at 485 nm and Emission at 535 nm; Perkin Elmer) or on the PheraSTAR (Excitation at 485 nm and Emission at 535 nm; BMG Labtech)
Nanoliter quantities of either an 8-point or 10-point, 3-fold serial dilution in DMSO was pre-dispensed into assay plates (Perkin Elmer, ProxiPlate-384 F Plus, #6008269) for a final test concentration range of either 25 μM to 11 nM or 25 μM to 1.3 nM, respectively. The final concentration of the enzyme (USP1, construct USP1 (I-785, GG670, 671AA)/UAF1 (I-677)-Flag; Viva) in the assay was 25 pM. Final substrate (Ub-Rh110; Ubiquitin-Rhodamine 110, R&D Systems #U-555) concentration was 25 nM with [Ub-Rh110]<<Km. […] Plates were incubated stacked for 20 minutes at room temperature before 5 μL of stop solution (final concentration of 10 mM citric acid in assay buffer (Sigma, #251275-500G)). Fluorescence was read on the Envision (Excitation at 485 nm and Emission at 535 nm; Perkin Elmer) or on the PheraSTAR (Excitation at 485 nm and Emission at 535 nm; BMG Labtech).
For both assay formats data were reported as percent inhibition compared with control wells based on the following equation: % inh=[1−((FLU−AveLow)/(AveHigh−AveLow))]×100 where FLU=measured Fluorescence, AveLow=average Fluorescence of no enzyme control (n=16), and AveHigh=average Fluorescence of DMSO control (n=16). IC50 values were determined by curve fitting of the standard 4 parameter logistic fitting algorithm included in the Activity Base software package: IDBS XE Designer Model205. Data is fitted using the Levenburg Marquardt algorithm.

USP1 (construct USP1 (I-785, GG670, 671AA)/UAF1 (I-677)-Flag), sequence (O94782 whole entry G670A/G671A): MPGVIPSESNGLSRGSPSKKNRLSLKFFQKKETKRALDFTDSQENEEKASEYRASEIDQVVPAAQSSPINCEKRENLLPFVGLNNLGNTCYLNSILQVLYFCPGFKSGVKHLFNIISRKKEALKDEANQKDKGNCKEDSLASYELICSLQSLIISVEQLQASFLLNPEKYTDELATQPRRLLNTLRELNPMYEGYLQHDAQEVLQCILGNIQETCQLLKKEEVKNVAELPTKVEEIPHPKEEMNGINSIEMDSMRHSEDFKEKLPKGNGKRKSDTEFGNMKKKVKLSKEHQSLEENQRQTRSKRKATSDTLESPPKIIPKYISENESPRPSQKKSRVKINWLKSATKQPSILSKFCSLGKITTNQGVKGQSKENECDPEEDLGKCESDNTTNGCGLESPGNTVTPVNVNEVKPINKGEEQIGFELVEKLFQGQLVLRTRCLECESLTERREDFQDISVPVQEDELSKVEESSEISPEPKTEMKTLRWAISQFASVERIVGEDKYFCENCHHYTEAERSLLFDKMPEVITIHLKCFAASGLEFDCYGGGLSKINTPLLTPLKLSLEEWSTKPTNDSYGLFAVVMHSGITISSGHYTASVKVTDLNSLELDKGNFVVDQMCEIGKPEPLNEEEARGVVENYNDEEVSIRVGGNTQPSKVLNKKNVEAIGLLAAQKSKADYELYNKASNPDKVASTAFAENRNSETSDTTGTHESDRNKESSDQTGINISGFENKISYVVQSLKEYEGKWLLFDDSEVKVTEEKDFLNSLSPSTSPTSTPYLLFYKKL
USP1 (construct USP1 (I-785, GG670, 671AA)/UAF1 (I-677)-Flag), sequence (Q8TAF3 whole entry partner): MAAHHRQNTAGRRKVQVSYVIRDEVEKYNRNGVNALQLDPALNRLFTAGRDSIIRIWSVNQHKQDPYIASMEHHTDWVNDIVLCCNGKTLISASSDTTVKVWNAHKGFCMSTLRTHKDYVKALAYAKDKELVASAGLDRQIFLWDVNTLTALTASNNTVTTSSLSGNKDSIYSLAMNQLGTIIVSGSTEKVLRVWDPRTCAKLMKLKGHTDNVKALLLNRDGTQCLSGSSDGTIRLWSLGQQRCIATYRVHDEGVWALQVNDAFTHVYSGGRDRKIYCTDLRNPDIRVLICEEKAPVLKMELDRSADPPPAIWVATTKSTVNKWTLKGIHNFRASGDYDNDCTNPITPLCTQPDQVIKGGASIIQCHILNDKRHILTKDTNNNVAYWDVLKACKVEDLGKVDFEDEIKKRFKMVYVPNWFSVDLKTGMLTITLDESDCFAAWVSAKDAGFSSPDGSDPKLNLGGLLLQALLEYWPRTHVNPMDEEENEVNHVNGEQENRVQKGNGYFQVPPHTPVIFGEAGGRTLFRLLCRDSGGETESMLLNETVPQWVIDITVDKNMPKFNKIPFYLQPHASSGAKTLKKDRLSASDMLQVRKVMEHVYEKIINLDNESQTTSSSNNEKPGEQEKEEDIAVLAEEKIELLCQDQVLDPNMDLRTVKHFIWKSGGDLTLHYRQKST

Compound	IC50 [nM]
Cn1cc(C(F)(F)F)nc1-c1ccc(Cn2c(=O)[nH]c3cnc(-c4ccccc4C(F)F)nc32)cc1 [Compound I-31, 2-(2-(difluoromethyl)phenyl)-9-(4-(1-methyl-4-(trifluoromethyl)-1H-imidazol-2-yl)benzyl)-7,9-dihydro-8H-purin-8-one]	< 50
CC(C)c1ncccc1-c1ncc2[nH]c(=O)n(Cc3ccc(-c4nc(C(F)(F)F)cn4C4COC4)cc3)c2n1 [Compound I-32, 2-(2-isopropylpyridin-3-yl)-9-(4-(1-(oxetan-3-yl)-4-(trifluoromethyl)-1H-imidazol-2-yl)benzyl)-7,9-dihydro-8H-purin-8-one]	50 to 200
O=c1[nH]c2cnc(-c3cccnc3C3CC3)nc2n1Cc1ccc(-c2nc(C(F)(F)F)cn2C2COC2)cc1 [Compound I-33, 2-(2-cyclopropylpyridin-3-yl)-9-(4-(1-(oxetan-3-yl)-4-(trifluoromethyl)-1H-imidazol-2-yl)benzyl)-7,9-dihydro-8H-purin-8-one]	< 50
CN1CCc2cccc(-c3ncc4[nH]c(=O)n(Cc5ccc(-c6nc(C(F)(F)F)cn6C)cc5)c4n3)c21 [Compound I-34, 9-(4-(1-methyl-4-(trifluoromethyl)-1H-imidazol-2-yl)benzyl)-2-(1-methylindolin-7-yl)-7,9-dihydro-8H-purin-8-one]	< 50
Cn1cc(C(F)(F)F)nc1-c1ccc(Cn2c(=O)[nH]c3cnc(-c4cccnc4OC(F)F)nc32)cc1 [Compound I-35, 2-(2-(difluoromethoxy)pyridin-3-yl)-9-(4-(1-methyl-4-(trifluoromethyl)-1H-imidazol-2-yl)benzyl)-7,9-dihydro-8H-purin-8-one]	< 50
Cn1cc(C(F)(F)F)nc1-c1ccc(Cn2c(=O)[nH]c3cnc(-c4cccc5c4OC(F)(F)O5)nc32)cc1 [Compound I-36, 2-(2,2-difluorobenzo[d][1,3]dioxol-4-yl)-9-(4-(1-methyl-4-(trifluoromethyl)-1H-imidazol-2-yl)benzyl)-7,9-dihydro-8H-purin-8-one]	200 to 2000
Cn1cc(C(F)(F)F)nc1-c1ccc(Cn2c(=O)[nH]c3cnc(-c4ccccc4OC(F)(F)F)nc32)cc1 [Compound I-37, 9-(4-(1-methyl-4-(trifluoromethyl)-1H-imidazol-2-yl)benzyl)-2-(2-(trifluoromethoxy)phenyl)-7,9-dihydro-8H-purin-8-one]	< 50
CC(=O)c1ccccc1-c1ncc2[nH]c(=O)n(Cc3ccc(-c4nc(C(F)(F)F)cn4C)cc3)c2n1 [Compound I-38, 2-(2-acetylphenyl)-9-(4-(1-methyl-4-(trifluoromethyl)-1H-imidazol-2-yl)benzyl)-7,9-dihydro-8H-purin-8-one]	< 50
Cc1cc(C(F)(F)F)nn1-c1ccc(Cn2c(=O)[nH]c3cnc(-c4cccnc4C(C)C)nc32)cc1 [Compound I-40, 2-(2-isopropylpyridin-3-yl)-9-(4-(5-methyl-3-(trifluoromethyl)-1H-pyrazol-1-yl)benzyl)-7,9-dihydro-8H-purin-8-one]	< 50
Cc1cc(C(F)(F)F)n(-c2ccc(Cn3c(=O)[nH]c4cnc(-c5cccnc5OCC(F)(F)F)nc43)cc2)n1 [Compound I-41, 9-(4-(3-methyl-5-(trifluoromethyl)-1H-pyrazol-1-yl)benzyl)-2-(2-(2,2,2-trifluoroethoxy)pyridin-3-yl)-7,9-dihydro-8H-purin-8-one]	50 to 200
COCCn1cc(C(F)(F)F)nc1-c1ccc(Cn2c(=O)[nH]c3cnc(-c4cccnc4C(C)C)nc32)cc1 [Compound I-43, 2-(2-isopropylpyridin-3-yl)-9-(4-(1-(2-methoxyethyl)-4-(trifluoromethyl)-1H-imidazol-2-yl)benzyl)-7,9-dihydro-8H-purin-8-one]	50 to 200
Cn1cc(C(F)(F)F)nc1-c1ccc(Cn2c(=O)[nH]c3cnc(-c4cccc5cnn(C)c45)nc32)cc1 [Compound I-44, 2-(1-methyl-1H-indazol-7-yl)-9-(4-(1-methyl-4-(trifluoromethyl)-1H-imidazol-2-yl)benzyl)-7,9-dihydro-8H-purin-8-one]	< 50

Reference: patent US10189841B2, “Purinones as ubiquitin-specific protease 1 inhibitors” (Forma Therapeutics, Inc., priority 2015, dated 2019)
